Values quoted from earlier work in patent publication US9682037B2, “Non-mucoadhesive film dosage forms” (APR APPLIED PHARMA RESEARCH S.A., priority 2006, dated 2017).
Where a name gives a salt, the structure may show the parent alone. Read-outs that look alike come from different tables or passages of the source.

Assays:
[1] = oral
[2] = oral 5 mg once daily for 10 days, normal healthy volunteers

For Cc1nccn1CC1CCc2c(c3ccccc3n2C)C1=O (racemic) [Ondansetron Base, (±) 1,2,3,9 tetrahydro-9-methyl-3-[(2-methyl-1H-imidazol-1-yl)methyl]-4H-carbazol-4-one], the Bioavailability (8 mg tablet) is given as “(56% for 8 mg tablet)”, the “Bioavailability in Healthy Subjects” value (healthy subjects) is given as “Bioavailability in Healthy Subjects = ca. 45-75%” and the Tmax (in vivo) is given as “Tmax = 1.5-2.5 Hours hours”. For the same compound, the “Effect of food on absorption” value (result in words) was “Bioavailability slightly enhanced by food” and the “Linearity / dose proportionality of pharmacokinetics” value (shortened to “Linearity / dose proportionality”) (result in words) was “Plasma concentrations are not dose”.

In the case of Cc1nnc2n1-c1ccc(Cl)cc1C(c1ccccc1)=NC2 [Alprazolam], the Tmax (in vivo) is listed as “Tmax = 1-2 hours”, the Cmax (over 0.3-3.0 mg dose range) is listed as “Cmax = 8.0-37 ng/ml over 0.3-3.0 mg dose range” and the “Linearity / dose proportionality” value (result in words) is listed as “Plasma levels proportionate to dose given”.

For O=C1CN=C(c2ccccc2Cl)c2cc([N+](=O)[O-])ccc2N1 [Clonazepam], the “Absolute Bioavailability” value (in vivo) is listed as “Absolute bioavailability = ca. 90%” and the Tmax (in vivo) is listed as “Tmax = 1-4 hours”.

In the case of Clc1ccc2c(c1)CCc1cccnc1C2=C1CCNCC1 [Desloratadine, 8-chloro, 6,11-dihydro-11-(4-piperdinylidene)-5H-benzo[5,6]cyclohepta[1,2-b]pyridine], the AUC [2] is given as “AUC = 56.9 ng hr/ml*” and the Tmax [2] is given as “Tmax = 3.0 hours*”.

In the case of COc1ccc2c3c1O[C@H]1C[C@@H](O)C=C[C@@]31CCN(C)C2 [Galantamine HBr], the Tmax (fasted) is listed as “Tmax = ca. 60 minutes (fasted)”, the “Absolute Bioavailability” value (in vivo) is listed as “Absolute bioavailability −= ca. 90%” and the “Administration with food delays absorption (Tmax) by” value (with food) is listed as 1.5 h.

In the case of O=C1Nc2ccc(Cl)cc2C(c2ccccc2Cl)=NC1O (centres unmarked) [Lorazepam], the Cmax (2 mg) is listed as 20 ng/mL, the “Absolute Bioavailability” value (in vivo) is listed as “Absolute bioavailability = ca. 90%” and the Tmax (in vivo) is listed as “Tmax = ca. 120 minutes”. The “Linearity / dose proportionality” value (result in words) was “dose proportionate”.

In the case of Cc1cc2c(s1)Nc1ccccc1N=C2N1CCN(C)CC1 [Olanzapine, 2-methyl-4-(4-methyl-1-piperazinyl)-10H-thieno[2,3-b][1,5]benzodiazepine], the “steady state conc. relative to conc. after single doses” value (administration once daily) is listed as “ca. twice the conc. after single doses”, the “Absolute Bioavailability” value (in vivo) is listed as “Absolute Bioavailability = ca. 60%” and the Tmax (in vivo) is listed as “Tmax = 6.0 hours”. The “Linearity / dose proportionality” value (result in words) was “Linear pharmacokinetics over clinical dosing”.

For Cc1nc2n(c(=O)c1CCN1CCC(c3noc4cc(F)ccc34)CC1)CCCC2 [Risperidone], the “Absolute Bioavailability” value (in vivo) is listed as “Absolute Bioavailability = ca. 70% (CV = 25%)” and the Tmax (in vivo) is listed as “Tmax = 1.0 hour hours”.

For CCN(C)C(=O)Oc1cccc([C@H](C)N(C)C)c1 [Rivastigmine Tartrate], the “Absolute Bioavailability” value (3.0 mg dose) is listed as “Absolute Bioavailability = ca. 36% for 3.0 mg”, the “increase in AUC on doubling dose” value (doubling dose from 3 to 6 mg BID) is listed as “Doubling dose from 3 to 6 mg BID → three fold” and the Tmax (fasted) is listed as “Tmax = 1.0 hours (fasted state)”. The “Linearity / dose proportionality” value (result in words) was “Linear pharmokinetics up to 3 mg BID”, the “Administration with food delays absorption (Tmax) by” value (with food) was 1.5 h and the “Food decreases/lowers Cmax by” value (with food) was roughly 30%.

For CCCc1nn(C)c2c(=O)[nH]c(-c3cc(S(=O)(=O)N4CCN(C)CC4)ccc3OCC)nc12 [Sildenafil Citrate], the Tmax (fasted) is given as 0.5 to 2 h, the Cmax (fasted, 100 mg dose) is given as “Cmax = ca. 450 ng/ml.(fasted) (100 mg dose)” and the “Absolute Bioavailability” value (in vivo) is given as “Absolute bioavailability = ca. 40%”.

For CNS(=O)(=O)Cc1ccc2[nH]cc(CCN(C)C)c2c1 [Sumatriptan Succinate, 3-[2-(dimethylamino)ethyl]-N-methyl-indole-5-methanesulfonamide], the Cmax (25 mg) is given as 18 ng/mL, the Cmax range (25 mg) is given as 7 to 47 ng/mL and the Cmax (100 mg) is given as 51 ng/mL. The Cmax range (100 mg) was “(range 28-100 ng/ml) (100 mg)”, the “High fat meal: AUC increased by” value (100 mg tablets) was 12% and the “High fat meal: Cmax increased by” value (100 mg tablets) was 15%. For the same compound, the Tmax (during migraine attack) was roughly 2.5 h, the “Absolute Bioavailability” value (in vivo) was “Absolute bioavailability = ca. 15%” and the “Cmax during a migraine attack versus when migraine free” value (in vivo) was “Cmax is same during a migraine attack and when”. For the same compound, the “Linearity / dose proportionality” value (result in words) was “Single dose → dose proportionality in extent of” and the Tmax (when migraine free) was roughly 2.0 h.

For CCCc1nc(C)c2c(=O)[nH]c(-c3cc(S(=O)(=O)N4CCN(CC)CC4)ccc3OCC)nn12 [Vardenafil HCl], the Tmax (fasted) is listed as 0.5 to 2 h, the Tmax median (fasted) is listed as 1 h and the Cmax (fasted, 20 mg dose) is listed as 10 to 25 ng/mL. The Cmax median (fasted, 20 mg dose) was roughly 18 ng/mL, the “Administration with high fat meal lowers Cmax by” value (high fat meal) was “Cmax by ca. 18-50%” and the “Absolute Bioavailability” value (in vivo) was “Absolute bioavailability = ca. 15%”.

In the case of CNC[C@H](O)c1cccc(O)c1 [phenylephrine], the “absolute bioavailability when ingested orally” value [1] is given as “approximately 40%” and the “time to peak plasma concentrations” value [1] is given as 1 to 2 h.
